How the values were obtained:
Type in all cases: in vivo
[1] = system: Avena fatua (AVEFA); assay: Pre-emergence herbicidal activity, glasshouse pot test; parameters: key: 5=total damage to plant; 0=no damage to plant; conditions: 1000 g/ha, pre-emergence spray, evaluated after 13 days, damage score 0-5
Experimental: (§1) Seeds of a variety of test species were sown in standard soil in pots: Triticum aestivium (TRZAW), Avena fatua (AVEFA), Alopecurus myosuroides (ALOMY), Echinochloa crus-galli (ECHCG), Lolium perenne (LOLPE), and Setaria faberi (SETFA). After cultivation for one day (pre-emergence) under controlled conditions in a glasshouse (at 24/16° C., day/night; 14 hours light; 65% humidity), the plants were sprayed with an aqueous spray solution derived from the formulation of the technical active ingredient in acetone/water (50:50) solution containing 0.5% Tween 20 (polyoxyethelyene sorbitan monolaurate, CAS RN 9005-64-5). The test plants were then grown in a glasshouse under controlled conditions (at 24/16° C., day/night; 14 hours light; 65% humidity) and watered twice daily. After 13 days, the test was evaluated (5=total damage to plant; 0=no damage to plant).

[2] = system: Alopecurus myosuroides (ALOMY); assay: as above; parameters: key: 5=total damage to plant; 0=no damage to plant; conditions: 1000 g/ha, pre-emergence spray, evaluated after 13 days, damage score 0-5
Experimental: as §1

[3] = system: Setaria faberi (SETFA); assay: as above; parameters: key: 5=total damage to plant; 0=no damage to plant; conditions: 1000 g/ha, pre-emergence spray, evaluated after 13 days, damage score 0-5
Experimental: as §1

[4] = system: Echinochloa crus-galli (ECHCG); assay: as above; parameters: key: 5=total damage to plant; 0=no damage to plant; conditions: 1000 g/ha, pre-emergence spray, evaluated after 13 days, damage score 0-5
Experimental: as §1

[5] = system: Lolium perenne (LOLPE); assay: as above; parameters: key: 5=total damage to plant; 0=no damage to plant; conditions: 1000 g/ha, pre-emergence spray, evaluated after 13 days, damage score 0-5
Experimental: as §1

[6] = system: Triticum aestivium (TRZAW); assay: as above; parameters: key: 5=total damage to plant; 0=no damage to plant; conditions: 1000 g/ha, pre-emergence spray, evaluated after 13 days, damage score 0-5
Experimental: as §1

[7] = system: Alopecurus myosuroides (ALOMY); assay: Post-emergence herbicidal activity, glasshouse pot test; parameters: key: 5=total damage to plant; 0=no damage to plant; conditions: 1000 g/ha, post-emergence spray after 8 days cultivation, evaluated after 13 days, damage score 0-5
Experimental: (§2) Seeds of a variety of test species were sown in standard soil in pots: Triticum aestivium (TRZAW), Avena fatua (AVEFA), Alopecurus myosuroides (ALOMY), Echinochloa crus-galli (ECHCG), Lolium perenne (LOLPE), and Setaria faberi (SETFA). After 8 days cultivation (post-emergence) under controlled conditions in a glasshouse (at 24/16° C., day/night; 14 hours light; 65% humidity), the plants were sprayed with an aqueous spray solution derived from the formulation of the technical active ingredient in acetone/water (50:50) solution containing 0.5% Tween 20 (polyoxyethelyene sorbitan monolaurate, CAS RN 9005-64-5). The test plants were then grown in a glasshouse under controlled conditions (at 24/16° C., day/night; 14 hours light; 65% humidity) and watered twice daily. After 13 days, the test was evaluated (5=total damage to plant; 0=no damage to plant).

[8] = system: Setaria faberi (SETFA); assay: as above; parameters: key: 5=total damage to plant; 0=no damage to plant; conditions: 1000 g/ha, post-emergence spray after 8 days cultivation, evaluated after 13 days, damage score 0-5
Experimental: as §2

[9] = system: Echinochloa crus-galli (ECHCG); assay: as above; parameters: key: 5=total damage to plant; 0=no damage to plant; conditions: 1000 g/ha, post-emergence spray after 8 days cultivation, evaluated after 13 days, damage score 0-5
Experimental: as §2

[10] = system: Lolium perenne (LOLPE); assay: as above; parameters: key: 5=total damage to plant; 0=no damage to plant; conditions: 1000 g/ha, post-emergence spray after 8 days cultivation, evaluated after 13 days, damage score 0-5
Experimental: as §2

[11] = system: Triticum aestivium (TRZAW); assay: as above; parameters: key: 5=total damage to plant; 0=no damage to plant; conditions: 1000 g/ha, post-emergence spray after 8 days cultivation, evaluated after 13 days, damage score 0-5
Experimental: as §2

[12] = system: Avena fatua (AVEFA); assay: as above; conditions: 1000 g/ha, post-emergence spray after 8 days cultivation, evaluated after 13 days, damage score 0-5
Experimental: as §2

| Compound | Control of weed species after pre-emergence application, AVEFA [1] | Control of weed species after pre-emergence application, ALOMY [2] | Control of weed species after pre-emergence application, SETFA [3] | Control of weed species after pre-emergence application, ECHCG [4] | Control of weed species after pre-emergence application, LOLPE [5] | Control of weed species after pre-emergence application, TRAZW [6] | Control of weed species after post-emergence application, ALOMY [7] | Control of weed species after post-emergence application, SETFA [8] | Control of weed species after post-emergence application, ECHCG [9] | Control of weed species after post-emergence application, LOLPE [10] | Control of weed species after post-emergence application, TRAZW [11] | Control of weed species after post-emergence application, AVEFA [12] |
| --- | --- | --- | --- | --- | --- | --- | --- | --- | --- | --- | --- | --- |
| O=C(CC(F)(F)F)Nc1cnc(-c2cncc(F)c2)nc1C(F)(F)F [Compound F23] | 0 | 0 | 5 | 3 | 0 | 0 | 0 | 5 | 5 | 2 | 0 | 3 |
| CCC(=O)Nc1cnc(-c2cncc(F)c2)nc1C(F)(F)F [Compound F4] | 3 | 1 | 4 | 3 | 0 | 0 | 0 | 4 | 4 | 2 | 1 | 4 |
| O=C(Nc1cnc(-c2cncc(F)c2)nc1C(F)(F)F)c1cccs1 [Compound F9] | 1 | 0 | 4 | 2 | 1 | 0 | 0 | 4 | 4 | 2 | 1 | 2 |
| CCC(=O)N(C(=O)CC)c1cnc(-c2cncc(F)c2)nc1C(F)(F)F [Compound F7] | 1 | 0 | 2 | 2 | 1 | 0 | 1 | 4 | 5 | 2 | 1 | 2 |
| O=C1CCCN1c1cnc(-c2cncc(F)c2)nc1C(F)(F)F [Compound F22] | 0 | 0 | 5 | 3 | 0 | 0 | 0 | 5 | 5 | 1 | 1 | 3 |
| O=C(COc1ccccc1)Nc1cnc(-c2cncc(F)c2)nc1C(F)(F)F [Compound F18] | 1 | 0 | 4 | 3 | 0 | 0 | 0 | 4 | 4 | 1 | 1 | 3 |
| O=C(C1CC1)N(C(=O)C1CC1)c1cnc(-c2cncc(F)c2)nc1C(F)(F)F [Compound F21] | 0 | 0 | 4 | 1 | 0 | 0 | 1 | 5 | 3 | 2 | 1 | 3 |
| CCCC(=O)Nc1cnc(-c2cncc(F)c2)nc1C(F)(F)F [Compound F33] | 1 | 0 | 4 | 4 | 0 | 1 | 1 | 5 | 4 | 2 | 1 | 3 |
| CC(C)=CC(=O)Nc1cnc(-c2cncc(F)c2)nc1C(F)(F)F [Compound F24] | 1 | 0 | 5 | 2 | 1 | 1 | 1 | 4 | 5 | 1 | 1 | 3 |
| O=C(Nc1cnc(-c2cncc(F)c2)nc1C(F)(F)F)C(Cl)(Cl)Cl [Compound F5] | 1 | 0 | 5 | 3 | 0 | 0 | 2 | 5 | 4 | 3 | 1 | 2 |
| COCC(=O)Nc1cnc(-c2cncc(F)c2)nc1C(F)(F)F [Compound F3] | 2 | 0 | 3 | 3 | 1 | 0 | 0 | 4 | 4 | 2 | 1 | 4 |
